Data reported in patent US20020037885A1, “Therapeutic compounds” (priority 1999, published 2002).
Where two headings read alike, the source gives them in different places.

Legend:
[1] = test system: marble burying behaviour in mice; experiment: Mouse Marble Burying Assay (BUR); format: in vivo; conditions: for ED50: Mus musculus, sc
Procedure: This assay was carried out essentially according to the procedure described by Treit et al. (1981) Pharmacol Biochem Behav; 15; 619-626.
The results are presented as BUR ED50 (sc). This is the effective dose causing 50% inhibition of burying compared to control mice.

[2] = effective dose causing 50% inhibition of burying compared to control mice
[3] = effective dose causing 50% inhibition of burying compared to control mice, read-out: BUR ED50 (SC)

SMILES	melting point [°C]	also measured
C=CCC(N)c1ccccc1-c1noc2cc(C(F)(F)F)ccc12.O=C(O)/C=C/C(=O)O (centres unmarked)	179 to 186	–
C=C(C)CC(N)c1ccccc1-c1noc2ccccc12.Cl (centres unmarked)	170 to 200	–
C=CCC(N)c1cccc(-c2noc3ccccc23)c1.O=C(O)/C=C\C(=O)O (centres unmarked)	148 to 150	–
C=CCC(N)c1ccccc1-c1noc2cc(F)ccc12.Cl (centres unmarked)	192 to 195	–
C=CCC(N)c1cc(F)ccc1-c1noc2ccccc12.O=C(O)/C=C/C(=O)O (centres unmarked)	176 to 180	–
C=CCC(N)c1cc(Cl)ccc1-c1noc2ccccc12.O=C(O)/C=C/C(=O)O (centres unmarked)	174 to 177	–
C=CCC(N)c1cc(F)ccc1-c1noc2ccc(F)cc12.O=C(O)/C=C/C(=O)O (centres unmarked)	168 to 173	–
C=CCC(N)c1ccc(F)cc1-c1noc2ccc(F)cc12.O=C(O)/C=C/C(=O)O (centres unmarked)	164 to 169	–
C=CCC(N)c1cc(F)ccc1-c1noc2cc(Cl)ccc12.O=C(O)/C=C\C(=O)O (centres unmarked)	162 to 164	–
C=CC[C@@H](N)c1ccccc1-c1noc2cc(F)ccc12.Cl	148 to 150	–
C=CC[C@@H](N)c1ccc(F)cc1-c1noc2ccccc12.O=C(O)/C=C/C(=O)O	104 to 109	–
C=CC[C@@H](N)c1cc(F)ccc1-c1noc2ccccc12.O=C(O)/C=C/C(=O)O	171 to 173	–
C=CC[C@H](N)c1ccc(F)cc1-c1noc2ccccc12.O=C(O)/C=C/C(=O)O	97 to 108	–
C=CCC(N)c1ccccc1-c1cc2ccccc2o1.Cl (centres unmarked)	225 to 227	–
C=CCC(N)c1ccccc1-c1ccc(-c2ccccc2)c(F)c1.O=C(O)/C=C/C(=O)O (centres unmarked)	205 to 208	–
C=CCC(N)c1ccccc1-c1ccoc1.O=C(O)/C=C/C(=O)O (centres unmarked)	183 to 185	–
C=CCC(N)c1ccccc1Cc1ccccc1.O=C(O)/C=C/C(=O)O (centres unmarked)	181 to 183	–
C=CCC(N)c1ccccc1-c1ccccc1Cl.O=C(O)/C=C/C(=O)O (centres unmarked)	189 to 191	–
C=CCC(N)c1ccccc1-c1ccc(C)cc1F.O=C(O)/C=C/C(=O)O (centres unmarked)	209 to 211	–
C=CCC(N)c1ccccc1-c1ccc(C)c(F)c1.O=C(O)/C=C/C(=O)O (centres unmarked)	194 to 196	–
C=CCC(N)c1ccccc1-c1ccc(Cl)c(F)c1.O=C(O)/C=C/C(=O)O (centres unmarked)	192 to 194	–
C=CCC(N)c1ccccc1Cc1cccc(OC)c1.O=C(O)/C=C/C(=O)O (centres unmarked)	163 to 165	–
C=CCC(N)c1ccccc1Cc1ccccc1OC.O=C(O)/C=C/C(=O)O (centres unmarked)	172 to 174	–
C=CCC(N)c1ccccc1-c1csc2ccccc12.O=C(O)/C=C\C(=O)O (centres unmarked)	185 to 187	–
C=CCC(N)c1ccccc1-c1nc2ccccc2o1.O=C(O)/C=C/C(=O)O (centres unmarked)	202 to 204	–
C=CCC(N)c1ccccc1-c1nc2ccccc2s1.Cl (centres unmarked)	240 to 242	–

SMILES	melting point [°C]	also measured
C=CCC(N)c1ccccc1-c1cc2ccccc2s1.Cl (centres unmarked)	106 to 108	–
C=CCC(N)c1ccccc1-c1cc2cc(F)ccc2s1.Cl (centres unmarked)	104 to 106	–
C=CCC(N)c1ccccc1-c1cc2cc(Cl)ccc2o1.Cl (centres unmarked)	226 to 228	–
C=CCC(N)C1(c2noc3ccccc23)CC=CS1.O=C(O)/C=C/C(=O)O (centres unmarked)	173 to 178	–
C=CCC(N)C1(c2noc3ccccc23)CC=CO1.O=C(O)/C=C/C(=O)O (centres unmarked)	158 to 165	–
C=CCC(N)c1cc(-c2noc3ccccc23)cs1.O=C(O)/C=C/C(=O)O (centres unmarked)	161 to 164	–
C=CCC(N)c1ccc(-c2noc3ccccc23)s1.O=C(O)/C=C/C(=O)O (centres unmarked)	182 to 189	–
C=CCC(N)c1oc2ccccc2c1-c1noc2ccccc12.O=C(O)/C=C/C(=O)O (centres unmarked)	210 to 216	–
C=CCC(N)c1ccccc1-c1cc(F)ccc1C.O=C(O)/C=C/C(=O)O (centres unmarked)	190 to 192	–
C=CCC(N)c1ccccc1-c1ccc(C)cc1.O=C(O)/C=C/C(=O)O (centres unmarked)	198 to 200	–
C=CCC(N)c1ccccc1-c1ccc(F)cc1.O=C(O)/C=C/C(=O)O (centres unmarked)	201 to 203	–
C=CCC(N)c1ccccc1-c1ccccc1F.O=C(O)/C=C/C(=O)O (centres unmarked)	225 to 226	–
C=CCC(N)c1ccccc1-c1cc(Cl)ccc1C.O=C(O)/C=C/C(=O)O (centres unmarked)	179 to 184	–
C=CCC(N)c1ccccc1-c1cccc(Cl)c1C.O=C(O)/C=C/C(=O)O (centres unmarked)	192 to 196	–
C=CCC(N)c1ccccc1-c1coc2ccccc12.Cl (centres unmarked)	160 to 165	–
C=CCC(N)c1ccccc1-c1cc(-c2ccccc2)on1.O=C(O)/C=C/C(=O)O (centres unmarked)	165 to 180	–
C=CCC(N)c1ccccc1-c1cc(C)on1.O=C(O)/C=C\C(=O)O (centres unmarked)	130 to 138	–
C=CCC(N)c1ccccc1-c1ccccc1OC.Cl (centres unmarked)	236 to 240	–
C=CCC(N)c1ccccc1-c1cccs1.O=C(O)/C=C/C(=O)O (centres unmarked)	196 to 197	–
CNC(Cc1ccccc1)c1ccccc1-c1noc2ccccc12.Cl (centres unmarked)	175	–
C=CCC(N)c1ccccc1-c1cnc2ccccc2c1.O=C(O)/C=C/C(=O)O (centres unmarked)	194 to 197	–
C=CCC(N)c1ccccc1N1C=CC=NC1.O=C(O)/C=C/C(=O)O (centres unmarked)	75 to 77	–
C=CCC(N)c1ccccc1-c1ccon1.O=C(O)/C=C/C(=O)O (centres unmarked)	150 to 175	–
C=CC[C@H](N)c1ccccc1-c1noc2cc(F)ccc12.Cl	166 to 174	–
CN(C)Cc1ccccc1-c1noc2ccccc12.Cl	190	–
CNCc1ccccc1-c1noc2ccccc12.Cl	230	–

SMILES	melting point [°C]	also measured
C=CCNCc1ccccc1-c1noc2ccccc12.Cl	176	–
COc1ccccc1CNCc1ccccc1-c1noc2ccccc12.O=C(O)C(=O)O	184	–
Cl.Cl.c1cncc(CNCc2ccccc2-c2noc3ccccc23)c1	154	–
Cl.NCc1ccccc1-c1noc2ccccc12	233	–
C#CCC(N)c1ccccc1-c1noc2ccccc12.O=C(O)C(=O)O (centres unmarked)	> 250	–
C#CCC(N)c1ccccc1-c1noc2cc(Cl)ccc12.Cl (centres unmarked)	209 to 214	–
CC(C)=CCC(N)c1ccccc1-c1noc2ccccc12.O=C(O)/C=C\C(=O)O (centres unmarked)	132 to 135	–
NC(CCCC(F)(F)F)c1ccccc1-c1noc2ccccc12.O=C(O)/C=C/C(=O)O (centres unmarked)	203 to 210	–
CCCCC(N)c1ccccc1-c1noc2cc(Cl)ccc12.Cl (centres unmarked)	209 to 214	–
CCCC(N)c1ccccc1-c1noc2ccccc12.Cl (centres unmarked)	118 to 126	–
CC(C)CC(N)c1ccccc1-c1noc2cc(F)ccc12.O=C(O)/C=C/C(=O)O (centres unmarked)	174 to 184	–
C#CCC(N)c1ccccc1-c1noc2cc(Cl)ccc12.C#CCC(N)c1ccccc1-c1noc2cc(Cl)ccc12.O=C(O)/C=C/C(=O)O (single isomer, unassigned; (-)) [13(5), (−)-2-(6-chloro-1,2-benzisoxazol-3-yl)-α-2-propynyl-benzenemethanamine (E)-butenedioate (2:1 salt)]	–	BUR ED50 (SC) [1, 2]: 0.4 mg/kg
C=CCC(N)c1ccccc1-c1noc2ccc(F)cc12.Cl (stereo not drawn) [11(3), 2-(5-fluoro-1,2-benzisoxazol-3-yl)-α-2-propenyl-benzenemethanamine hydrochloride]	209 to 214	ED50 [1, 3]: 2.68 mg/kg
C=CC[C@@H](N)c1ccccc1-c1noc2cc(Cl)ccc12.Cl [12(2), (R)-(+)-2-(6-chloro-1,2-benzisoxazol-3-yl)-α-2-propenyl-benzenemethanamine hydrochloride]	144 to 159	ED50 [1, 3]: 3.4 mg/kg
C=CCC(N)c1ccccc1-c1ccccc1.Cl (stereo not drawn) [15 (4), 2-phenyl-α-2-propenyl-benzenemethanamine hydrochloride]	214 to 218	ED50 ([1]; Table 2, read-out: BUR sc ED50(mg/kg)): 8.6 mg/kg
C=CCC(N)c1ccccc1-c1cccc2ccccc12.Cl (stereo not drawn) [15 (6), 2-(napth-1-yl)-α-2-propenyl-benzenemethanamine hydrochloride]	–	BUR sc ED50(mg/kg) ([1]; Table 2): 11.6 mg/kg
Cl.NC(CC1CC1)c1ccccc1-c1noc2ccccc12 (stereo not drawn) [36(6), 2-(1,2-benzisoxazol-3-yl)-α-(cyclopropylmethyl)-benzenemethanamine hydrochloride]	–	ED50 [1, 3]: 1.5 mg/kg
C#CCC(N)c1ccccc1-c1noc2ccccc12.O=C(O)/C=C/C(=O)O (centres unmarked) [Example 12(5)]	165 to 170	–
C#CCC(N)c1ccccc1-c1noc2ccccc12.O=C(O)/C=C/C(=O)O (centres unmarked) [Example 13(4)]	161 to 169	–
c1ccc(CNC(Cc2ccccc2)c2ccccc2-c2noc3ccccc23)cc1 (stereo not drawn) [Example 16(2), α-[2-(1,2-benzisoxazol-3-yl)phenyl]-N-benzyl-benzeneethanamine]	153	–
c1ccc(-c2noc3ccccc23)c(CNCc2ccccc2-c2noc3ccccc23)c1 [Example 22, 2-(1,2-Benzisoxazol-3-yl)-N-[[2-(1,2-benzisoxazol-3-yl)phenyl]methyl]-benzenemethanamine]	138	–
C1=CCC(c2ccccc2-c2noc3ccccc23)NC1 (centres unmarked) [Example 36(11), 2-[2-(1,2-benzisoxazol-3-yl)-phenyl]-1,2,3,6-tetrahydropyridine]	242 to 268	–
c1ccc(C2CCCN2)c(-c2noc3ccccc23)c1 (centres unmarked) [Example 36(12), 2-[2-(1,2-benzisoxazol-3-yl)-phenyl]-pyrrolidine]	253 to 261	–
Cl.NC(Cc1ccc(F)cc1)c1ccccc1-c1noc2ccccc12 (stereo not drawn) [Example 36, 2-(1,2-Benzisoxazol-3-yl)-α-(4-fluorobenzyl)-benzenemethanamine Hydrochloride.]	–	BUR ED50 (SC) [1, 2]: 2.8 mg/kg
Cl.NC(c1ccccc1-c1noc2ccccc12)C1CC=CCC1 (stereo not drawn) [Example 37, 2-(1,2-Benzisoxazol-3-yl)-α-(3-cyclohexenyl)-benzenemethanamine Hydrochloride]	–	ED50 [1, 3]: 3.1 mg/kg
